According to patent publication US20250381198A1 (Melt Pharmaceuticals, Inc., priority 2024, published 2025):

How the values were obtained:
[1] = system: subjects undergoing cataract extraction with lens replacement (CELR); experiment: Phase 2: mean intraoperative analgesia by the numeric pain rating scale; conditions: for Intraoperative Numeric Pain Rating Scale, Mean / Intraoperative Numeric Pain Rating Scale, Median: full analysis set
Description: Mean intraoperative analgesia by the numeric pain rating scale (Min=0; Max=9) was assayed for each subject in the full analysis set at intraoperative timepoints: insertion of the speculum; corneal incision; insertion of phacoemulsion probe; insertion of the synthetic replacement lens. An average of the available timepoints was also calculated.

[2] = system: subjects undergoing cataract extraction with lens replacement (CELR); experiment: Phase 2: subjects requiring rescue analgesic medication; assay type: in vivo, human; conditions: Visit 2 (Day 1); full analysis set
Description: (§1) The number of subjects achieving analgesia response (observed) in the full analysis set was determined. Success in analgesia response was defined as NPRS<4 at the available at the available four intraoperative timepoints and a failure otherwise (e.g., any interoperative pain rescue was assumed to be a failure. Results are provided in TABLE 25. The number of subjects completing the surgery is provided in TABLE 26, and the number of subjects completing the surgery without interruption is provided in TABLE 27. For this measure, subjects completing the surgery without interruption (other than rescue medication) due to pain or anxiety were considered successes. The number of subjects requiring rescue sedative medication and those requiring analgesic medication are provided in TABLES 28 and 29, respectively. For all TABLES 25-29, p-Values between pairs of treatments were calculated and are provided.

[3] = system: subjects undergoing cataract extraction with lens replacement (CELR); experiment: Phase 2: subjects completing the surgery (and without interruption); assay type: in vivo, human; conditions: Visit 2 (Day 1); full analysis set
Description: as §1

[4] = system: subjects undergoing cataract extraction with lens replacement (CELR); experiment: Phase 2: subjects wanting study drug again for a second surgery (11-point Likert scale); assay type: in vivo, human; conditions: for Want Study Drug Again, Mean / Want Study Drug Again, Median: 11-point Likert scale of 0 (not likely at all) to 10 (extremely likely), full analysis set
Source text: Post-operation, subjects were asked whether they would want the study drug again for a second surgery using an 11-point Likert scale of 0 (not likely at all) to 10 (extremely likely).

[5] = system: subjects undergoing cataract extraction with lens replacement (CELR); experiment: Phase 2: subjects requiring rescue sedative medication; assay type: in vivo, human; conditions: Visit 2 (Day 1); full analysis set
Description: as §1

[6] = Average of Available Timepoints, adjusted for site (carry forward)
[7] = Average of Available Timepoints, adjusted for site (carry forward), repeated measures model with covariates for study center
[8] = Average of Available Timepoints, carry forward
[9] = Average of Available Timepoints, carry forward, repeated measures model
[10] = Average of Available Timepoints, observed
[11] = Average of Available Timepoints, observed, repeated measures model
[12] = Corneal incision, adjusted for site (carry forward)
[13] = Corneal incision, carry forward
[14] = Insertion of the phacoemulsion probe, adjusted for site (carry forward)
[15] = Insertion of the phacoemulsion probe, carry forward
[16] = Insertion of the phacoemulsion probe, observed
[17] = Insertion of the speculum, adjusted for site (carry forward)
[18] = Insertion of the speculum, carry forward
[19] = Insertion of the speculum, observed
[20] = Insertion of the synthetic replacement lens, adjusted for site (carry forward)
[21] = Insertion of the synthetic replacement lens, carry forward
[22] = Insertion of the synthetic replacement lens, observed
[23] = adjusted for site (carry forward), repeated measures model with covariates for study center
[24] = carry forward, repeated measures model
[25] = observed, repeated measures model
[26] = 11-point Likert scale, unpaired t-test

SMILES: CNC1(c2ccccc2Cl)CCCCC1=O (centres unmarked) [Ketamine 50 mg]
- Intraoperative Numeric Pain Rating Scale, Mean [1, 6]: 2.16
- Intraoperative Numeric Pain Rating Scale, Median [1, 6]: 1.75
- Intraoperative Numeric Pain Rating Scale, LS Mean [1, 7]: 1.89
- Intraoperative Numeric Pain Rating Scale, Mean [1, 8]: 2.16
- Intraoperative Numeric Pain Rating Scale, Median [1, 8]: 1.75
- Intraoperative Numeric Pain Rating Scale, LS Mean [1, 9]: 2.16
- Intraoperative Numeric Pain Rating Scale, Mean [1, 10]: 2.00
- Intraoperative Numeric Pain Rating Scale, Median [1, 10]: 1.75
- Intraoperative Numeric Pain Rating Scale, LS Mean [1, 11]: 2.22
- Intraoperative Numeric Pain Rating Scale, Mean [1, 12]: 1.8
- Intraoperative Numeric Pain Rating Scale, Median [1, 12]: 1.0
- Intraoperative Numeric Pain Rating Scale, Mean [1, 13]: 1.8
- Intraoperative Numeric Pain Rating Scale, Median [1, 13]: 1.0
- Intraoperative Numeric Pain Rating Scale, Mean ([1]; Corneal incision, observed): 1.7
- Intraoperative Numeric Pain Rating Scale, Median ([1]; Corneal incision, observed): 1.0
- Intraoperative Numeric Pain Rating Scale, Mean [1, 14]: 2.5
- Intraoperative Numeric Pain Rating Scale, Median [1, 14]: 2.0
- Intraoperative Numeric Pain Rating Scale, Mean [1, 15]: 2.5
- Intraoperative Numeric Pain Rating Scale, Median [1, 15]: 2.0
- Intraoperative Numeric Pain Rating Scale, Mean [1, 16]: 2.1
- Intraoperative Numeric Pain Rating Scale, Median [1, 16]: 2.0
- Intraoperative Numeric Pain Rating Scale, Mean [1, 17]: 1.3.
- Intraoperative Numeric Pain Rating Scale, Median [1, 17]: 1.0
- Intraoperative Numeric Pain Rating Scale, Mean [1, 18]: 1.1
- Intraoperative Numeric Pain Rating Scale, Median [1, 18]: 1.0
- Intraoperative Numeric Pain Rating Scale, Mean [1, 19]: 1.1
- Intraoperative Numeric Pain Rating Scale, Median [1, 19]: 1.0
- Intraoperative Numeric Pain Rating Scale, Mean [1, 20]: 3.3
- Intraoperative Numeric Pain Rating Scale, Median [1, 20]: 3.0
- Intraoperative Numeric Pain Rating Scale, Mean [1, 21]: 3.3
- Intraoperative Numeric Pain Rating Scale, Median [1, 21]: 3.0
- Intraoperative Numeric Pain Rating Scale, Mean [1, 22]: 2.5
- Intraoperative Numeric Pain Rating Scale, Median [1, 22]: 2.0
- Numeric Pain Rating Scale, LS Mean Difference Versus Placebo [1, 23]: −0.30
- Numeric Pain Rating Scale, LS Mean Difference Versus Placebo [1, 24]: −0.32
- Numeric Pain Rating Scale, LS Mean Difference Versus Placebo [1, 25]: −0.26
- Subjects Requiring Rescue Analgesic Medication, No, % [2]: (59.5) %
- Subjects Requiring Rescue Analgesic Medication, Yes, % [2]: (40.5) %
- Subjects Completing the Surgery without Interruption, No, % [3]: (6.3) %
- Subjects Completing the Surgery without Interruption, Yes, % [3]: (93.7) %
- Want Study Drug Again, Mean [4]: 7.6
- Want Study Drug Again, Median [4]: 10.0
- Want Study Drug Again, Mean Difference Versus Placebo [4, 26]: −0.05
- Subjects Requiring Rescue Sedative Medication, Intraoperatively, % [5]: (6.3) %
- Subjects Requiring Rescue Sedative Medication, No, % [5]: (63.3) %
- Subjects Requiring Rescue Sedative Medication, Pre-operatively, % [5]: (30.4) %
- Subjects Requiring Rescue Sedative Medication, Yes, % [5]: (36.7) %

SMILES: Cc1ncc2n1-c1ccc(Cl)cc1C(c1ccccc1F)=NC2 [Midazolam 3 mg]
- Intraoperative Numeric Pain Rating Scale, Mean [1, 6]: 2.37
- Intraoperative Numeric Pain Rating Scale, Median [1, 6]: 2.00
- Intraoperative Numeric Pain Rating Scale, LS Mean [1, 7]: 2.12
- Intraoperative Numeric Pain Rating Scale, Mean [1, 8]: 2.37
- Intraoperative Numeric Pain Rating Scale, Median [1, 8]: 2.00
- Intraoperative Numeric Pain Rating Scale, LS Mean [1, 9]: 2.37
- Intraoperative Numeric Pain Rating Scale, Mean [1, 10]: 2.18
- Intraoperative Numeric Pain Rating Scale, Median [1, 10]: 2.00
- Intraoperative Numeric Pain Rating Scale, LS Mean [1, 11]: 2.46
- Intraoperative Numeric Pain Rating Scale, Mean [1, 12]: 1.8
- Intraoperative Numeric Pain Rating Scale, Median [1, 12]: 1.0
- Intraoperative Numeric Pain Rating Scale, Mean [1, 13]: 1.8
- Intraoperative Numeric Pain Rating Scale, Median [1, 13]: 1.0
- Intraoperative Numeric Pain Rating Scale, Mean ([1]; Corneal incision, observed): 1.8
- Intraoperative Numeric Pain Rating Scale, Median ([1]; Corneal incision, observed): 1.0
- Intraoperative Numeric Pain Rating Scale, Mean [1, 14]: 2.9
- Intraoperative Numeric Pain Rating Scale, Median [1, 14]: 3.0
- Intraoperative Numeric Pain Rating Scale, Mean [1, 15]: 2.9
- Intraoperative Numeric Pain Rating Scale, Median [1, 15]: 3.0
- Intraoperative Numeric Pain Rating Scale, Mean [1, 16]: 2.5
- Intraoperative Numeric Pain Rating Scale, Median [1, 16]: 2.0
- Intraoperative Numeric Pain Rating Scale, Mean [1, 17]: 1.1
- Intraoperative Numeric Pain Rating Scale, Median [1, 17]: 0.0
- Intraoperative Numeric Pain Rating Scale, Mean [1, 18]: 1.1
- Intraoperative Numeric Pain Rating Scale, Median [1, 18]: 0.0
- Intraoperative Numeric Pain Rating Scale, Mean [1, 19]: 1.1
- Intraoperative Numeric Pain Rating Scale, Median [1, 19]: 0.0
- Intraoperative Numeric Pain Rating Scale, Mean [1, 20]: 3.6
- Intraoperative Numeric Pain Rating Scale, Median [1, 20]: 4.0
- Intraoperative Numeric Pain Rating Scale, Mean [1, 21]: 3.6
- Intraoperative Numeric Pain Rating Scale, Median [1, 21]: 4.0
- Intraoperative Numeric Pain Rating Scale, Mean [1, 22]: 2.9
- Intraoperative Numeric Pain Rating Scale, Median [1, 22]: 3.0
- Numeric Pain Rating Scale, LS Mean Difference Versus Ketamine [1, 23]: 0.22
- Numeric Pain Rating Scale, LS Mean Difference Versus Placebo [1, 23]: −0.08
- Numeric Pain Rating Scale, LS Mean Difference Versus Ketamine [1, 24]: 0.20
- Numeric Pain Rating Scale, LS Mean Difference Versus Placebo [1, 24]: −0.12
- Numeric Pain Rating Scale, LS Mean Difference Versus Ketamine [1, 25]: 0.24
- Numeric Pain Rating Scale, LS Mean Difference Versus Placebo [1, 25]: −0.01
- Subjects Requiring Rescue Analgesic Medication, No, % [2]: (56.8) %
- Subjects Requiring Rescue Analgesic Medication, Yes, % [2]: (43.2) %
- Subjects Completing the Surgery without Interruption, No, % [3]: (0) %
- Subjects Completing the Surgery without Interruption, Yes, % [3]: (100.0) %
- Want Study Drug Again, Mean [4]: 8.4
- Want Study Drug Again, Median [4]: 10.0
- Want Study Drug Again, Mean Difference Versus Ketamine [4, 26]: 0.80
- Want Study Drug Again, Mean Difference Versus Placebo [4, 26]: 0.75
- Subjects Requiring Rescue Sedative Medication, Intraoperatively, % [5]: (8.6) %
- Subjects Requiring Rescue Sedative Medication, No, % [5]: (65.4) %
- Subjects Requiring Rescue Sedative Medication, Pre-operatively, % [5]: (25.9) %
- Subjects Requiring Rescue Sedative Medication, Yes, % [5]: (34.6) %
